According to patent US20240018140A1, “MODIFIED IMIDAZOPYRIDINES AS GLUCOSYLCERAMIDE SYNTHASE INHIBITORS” (Merck Sharp & Dohme LLC, priority 2020, published 2024):
pEC50: −log10 of the molar value.

Molecular target: glucosylceramide synthase (GCS) (Homo sapiens (Human), UniProt Q16739)
Experiment: UDP-Glo glucosylceramide synthase biochemical assay
Conditions: endogenous GCS in Golgi preparations from human A375 malignant melanoma skin cells; C6 ceramide and UDP-glucose substrates; 20 h incubation; UDP detected by luminescence
Text: UDP-Glo™ Glucosylceramide Synthase Biochemical Assay
A UDP-Glo™ glucosylceramide synthase biochemical assay was utilized to evaluate the effect of test compounds on the activity of endogenous levels of GCS enzyme contained within Golgi preparations isolated from human A375 malignant melanoma skin cells. The UDP-Glo™ glucosylceramide synthase assay uses UDP-Glucose as a nucleotide-glycosyl donor and ceramide as substrate acceptor molecules. In the reaction, glucosylceramide synthase (GCS) transfers glucose from UDP-Glucose to ceramide. Glucosylceramide and UDP are released as products.
Using Promega's UDP-Glo™ Glycosyltransferase assay kit (Promega Corporation, Madison, WI, USA (Promega)), GCS activity was indirectly measured by detecting the amount of UDP produced. An aliquot of GCS enzyme (1.5 μg crude golgi preparation, total protein) and titrated test compound were aliquoted to each well and incubated for 30 minutes at room temperature. […] An equivalent volume of substrate mixture was then added to each well. Following a 20 h incubation at room temperature to allow for GCS turnover of substrate, an equal volume of UDP detection reagent (Promega) was added to each well and incubated for an additional 75 minutes at room temperature to simultaneously convert the accumulated UDP product into ATP and generate light in a luciferase reaction. The generated light was detected using a luminometer. […] luminescence values (RLUs) were normalized to mean “min” and “max” effects, as determined on each plate. “Min” was defined as the mean of the values of the wells treated with vehicle (DMSO) and which represent 0% inhibition; “max” was defined as the mean of the values of the wells treated with a reference inhibitor and which represent the 100% effect. Values for % Emax and EC50 were determined by best-fitting the normalized data to a curve in Activity Base along a four-parameter logistic nonlinear regression (4PL) model (based on the Levenberg-Marquardt algorithm and defined by the equation below): […]
where: n is 4PMin (bottom of the curve); m is 4PMax (top of the curve); i is IP (inflection point of curve); and p is slope. See Levenberg, K., “A Method for the Solution of Certain Problems in Least Squares”, Quart. Appl. Math. 2, (1944), pp 164-168 and Marquardt, D., “An Algorithm for Least Squares Estimation on Nonlinear Parameters”, SIAM J. Appl. Math. 11, (1963) pp 431-441.

Chain of glucosylceramide synthase (GCS) (Q16739 whole entry): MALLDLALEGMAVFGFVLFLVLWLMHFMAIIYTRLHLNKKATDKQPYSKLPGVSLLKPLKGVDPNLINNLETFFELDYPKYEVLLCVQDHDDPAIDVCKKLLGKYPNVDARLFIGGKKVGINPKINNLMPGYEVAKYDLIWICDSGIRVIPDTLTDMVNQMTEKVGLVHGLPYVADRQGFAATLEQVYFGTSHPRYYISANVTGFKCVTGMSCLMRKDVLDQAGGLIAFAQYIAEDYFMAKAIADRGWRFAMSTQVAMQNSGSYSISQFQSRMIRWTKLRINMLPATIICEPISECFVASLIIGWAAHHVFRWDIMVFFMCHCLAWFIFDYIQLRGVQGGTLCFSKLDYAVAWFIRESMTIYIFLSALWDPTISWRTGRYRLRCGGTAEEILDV

| Structure (SMILES) | pEC50 |
| --- | --- |
| OCC1COC(c2cn3cc(Cl)cc(-c4ccccc4OCC(F)(F)F)c3n2)=N1 (stereo not drawn) [Compound 72, [2-[6-chloro-8-[2-(2,2,2-trifluoroethoxy)phenyl]imidazo[1,2-a]pyridin-2-yl]-4,5-dihydrooxazol-4-yl]methanol] | 8.10 |
| NC(CNC(=O)c1cn2cc(Cl)cc(-c3ccccc3OCC(F)(F)F)c2n1)C(F)(F)F (stereo not drawn) [Compound 23, N-(2-amino-3,3,3-trifluoropropyl)-6-chloro-8-(2-(2,2,2-trifluoroethoxy)phenyl)imidazo[1,2-a]pyridine-2-carboxamide] | 8.00 |
| CC(C)(NC(=O)c1cn2cc(F)cc(-c3ccccc3OCC(F)(F)F)c2n1)C(F)(F)F [Compound 41, 6-fluoro-N-(1,1,1-trifluoro-2-methylpropan-2-yl)-8-(2-(2,2,2-trifluoroethoxy)phenyl)imidazo[1,2-a]pyridine-2-carboxamide] | 8.77 |
| O=C(Nc1ccc2cccc(-c3ccccc3OCC(F)(F)F)c2n1)[C@H]1C[C@H](O)C1 [Compound 82, trans-3-hydroxy-N-(8-(2-(2,2,2-trifluoroethoxy)phenyl)quinolin-2-yl)cyclobutane-1-carboxamide] | 8.52 |
| O=C(NC1(CO)CCCC1)c1cn2cccc(-c3ccccc3OCC(F)(F)F)c2n1 [Compound 21, N-(1-(hydroxymethyl)cyclopentyl)-8-(2-(2,2,2-trifluoroethoxy)phenyl)imidazo[1,2-a]pyridine-2-carboxamide] | 7.96 |
| CC(C)(NC(=O)c1nc2c(-c3ccccc3OCC(F)(F)F)cccn2c1F)C(F)(F)F [Compound 33, 3-fluoro-N-(1,1,1-trifluoro-2-methylpropan-2-yl)-8-(2-(2,2,2-trifluoroethoxy)phenyl)imidazo[1,2-a]pyridine-2-carboxamide] | 7.85 |
| O=C(N[C@H]1CC[C@H](O)C[C@H]1F)c1cn2cc(Cl)cc(-c3ccccc3OCC(F)(F)F)c2n1 (mixture of isomers) [Compound 22, 6-chloro-N-((1S,2R,4S and 1R, 2S,4R)-2-fluoro-4-hydroxycyclohexyl)-8-(2-(2,2,2-trifluoroethoxy)phenyl)imidazo[1,2-a]pyridine-2-carboxamide] | 9.14 |
| O=C(N[C@H]1CC[C@H](O)CC1)c1cn2cc(C(F)(F)F)cc(-c3ccccc3OCC(F)(F)F)c2n1 [Compound 36, N-(trans-4-hydroxycyclohexyl)-8-(2-(2,2,2-trifluoroethoxy)phenyl)-6-(trifluoromethyl)imidazo[1,2-a]pyridine-2-carboxamide] | 8.68 |
| O=C(N[C@@H]1COC[C@@H]1F)c1cn2cc(Cl)cc(-c3ccccc3OCC(F)(F)F)c2n1 [Compound 45, 6-chloro-N-((3R,4R)-4-fluorotetrahydrofuran-3-yl)-8-(2-(2,2,2-trifluoroethoxy)phenyl)imidazo[1,2-a]pyridine-2-carboxamide] | 8.37 |
| CC1(NC(=O)c2cn3cc(Cl)cc(-c4ccccc4OCC(F)(F)F)c3n2)CCCOC1 (racemic) [Compound 35, (R and S)-6-chloro-N-(3-methyltetrahydro-2H-pyran-3-yl)-8-(2-(2,2,2-trifluoroethoxy)phenyl)imidazo[1,2-a]pyridine-2-carboxamide] | 8.48 |
| O=C(N[C@H]1CC[C@H](O)C1)c1cn2cccc(-c3ccccc3OCC(F)(F)F)c2n1 (relative stereo) [Compound 19, N-(trans-3-hydroxycyclopentyl)-8-(2-(2,2,2-trifluoroethoxy)phenyl)imidazo[1,2-a]pyridine-2-carboxamide] | 7.64 |
| O=C(N[C@@H]1CCC[C@H](CO)C1)c1cn2cccc(-c3ccccc3OCC(F)(F)F)c2n1 (relative stereo) [Compound 31, N-(cis-3-(hydroxymethyl)cyclohexyl)-8-(2-(2,2,2-trifluoroethoxy)phenyl)imidazo[1,2-a]pyridine-2-carboxamide] | 9.64 |

Further compounds by rising pEC50, results first:

| pEC50 | Structure (SMILES) |
| --- | --- |
| 7.77 | OCc1cn2cc(C(F)(F)F)cc(-c3ccccc3OCC(F)(F)F)c2n1 [Compound 62, (8-(2-(2,2,2-trifluoroethoxy)phenyl)-6-(trifluoromethyl)imidazo[1,2-a]pyridin-2-yl)methanol] |
| 7.80 | O=C(N[C@H]1C[C@@H](O)C1)c1cc2c(-c3ccccc3OCC(F)(F)F)cccc2cn1 [Compound 84] |
| 7.92 | NCC1CN=C(c2cn3cc(Cl)cc(-c4ccccc4OCC(F)(F)F)c3n2)O1 (stereo not drawn) [Compound 74, (2-(6-chloro-8-(2-(2,2,2-trifluoroethoxy)phenyl)imidazo[1,2-a]pyridin-2-yl)-4,5-dihydrooxazol-5-yl)methanamine] |
| 8.04 | O=C(NC12CC(CO)(C1)C2)c1cn2cccc(-c3ccccc3OCC(F)(F)F)c2n1 [Compound 47, N-(3-(hydroxymethyl)bicyclo[1.1.1]pentan-1-yl)-8-(2-(2,2,2-trifluoroethoxy)phenyl)imidazo[1,2-a]pyridine-2-carboxamide] |
| 8.08 | CC(C)(NC(=O)c1cn2cc(C#N)cc(-c3ccccc3OCC(F)(F)F)c2n1)C(F)(F)F [Compound 44, 6-cyano-N-(1,1,1-trifluoro-2-methylpropan-2-yl)-8-(2-(2,2,2-trifluoroethoxy)phenyl)imidazo[1,2-a]pyridine-2-carboxamide] |
| 8.21 | O=C(NC1CCCOC1)c1cn2cccc(-c3ccccc3OCC(F)(F)F)c2n1 (single isomer, unassigned) [Compound 2, (R or S)-N-(tetrahydro-2H-pyran-3-yl)-8-(2-(2,2,2-trifluoroethoxy)phenyl)imidazo[1,2-a]pyridine-2-carboxamide] |
| 8.35 | CC(C)(CO)NC(=O)c1cn2cc(C(F)(F)F)cc(-c3ccccc3OCC(F)(F)F)c2n1 [Compound 37, N-(1-hydroxy-2-methylpropan-2-yl)-8-(2-(2,2,2-trifluoroethoxy)phenyl)-6-(trifluoromethyl)imidazo[1,2-a]pyridine-2-carboxamide] |
| 8.35 | O=C(c1cn2cccc(-c3ccccc3OCC(F)(F)F)c2n1)N1CC2CC1(CF)C2 [Compound 48, (1-(fluoromethyl)-2-azabicyclo[2.1.1]hexan-2-yl)(8-(2-(2,2,2-trifluoroethoxy)phenyl)imidazo[1,2-a]pyridin-2-yl)methanone] |
| 8.43 | CC(C)(O)C1(C)CN=C(c2cn3cc(Cl)cc(-c4ccccc4OCC(F)(F)F)c3n2)O1 (stereo not drawn) [Compound 77, 2-[2-[6-chloro-8-[2-(2,2,2-trifluoroethoxy)phenyl]imidazo[1,2-a]pyridin-2-yl]-5-methyl-4H-oxazol-5-yl]propan-2-ol] |
| 9.04 | O=C(N[C@H]1CCOC1)c1cn2cc(Cl)cc(-c3ccccc3OCC(F)(F)F)c2n1 [Compound 5, (S)-6-chloro-N-(tetrahydrofuran-3-yl)-8-(2-(2,2,2-trifluoroethoxy)phenyl)imidazo[1,2-a]pyridine-2-carboxamide] |
| 9.35 | O=C(Nc1cnccc1F)c1cn2cccc(-c3ccccc3OCC(F)(F)F)c2n1 [Compound 57, N-(4-fluoropyridin-3-yl)-8-(2-(2,2,2-trifluoroethoxy)phenyl)imidazo[1,2-a]pyridine-2-carboxamide] |
| 10.21 | CN1CC2(CN=C(c3cn4cc(Cl)cc(-c5ccccc5OCC(F)(F)F)c4n3)O2)C1 [Compound 70, 6-[6-chloro-8-[2-(2,2,2-trifluoroethoxy)phenyl]imidazo[1,2-a]pyridin-2-yl]-2-methyl-5-oxa-2,7-diazaspiro[3.4]oct-6-ene] |
